The test system of data set [1] is T1, mTOR Complex 1 (Homo sapiens).
T1 construct: EC lysates were obtained and immunoprecipitated with anti-Raptor (mTOR Complex 1 component); endogenous in cells; host or cells: human endothelial cells (EC)
Nature of the data set: VEGF-induced mTOR complex formation, anti-Raptor immunoprecipitation and immunoblot. The note with it: human EC, VEGF 100 nM 5 minutes, 1 hour pretreatment with 100 nM compound. The class given is cell-based. On the procedure: (§1) Analysis of mTOR Complex Formation and Regulation of Akt Phosphorylation—Human EC were serum starved for one hour and either untreated (control) or treated with VEGF (100 nM, 5 minutes) with or without pretreatment (1 hour) with 100 nM MNTX or 100 nM Temsirolimus. EC lysates were obtained and immunoprecipitated with anti-Raptor (mTOR Complex 1 component) or anti-Rictor (mTOR complex 2 component) antibody. The immunoprecipitated material was run on SDS-PAGE and immunoblotted with either anti-mTOR, anti-FKBP12, anti-Raptor, anti-SIN1 or anti-Rictor antibody. To investigate the regulation of Akt phosphorylation, human EC were serum starved for one hour and either untreated (control) or treated with VEGF (100 nM, 5 minutes) with or without pretreatment with the PI3 kinase inhibitor, LY294002 (10 μM, 1 hour), Src siRNA or Rictor (mTOR complex 2 component) siRNA. EC lysates were obtained, run on SDS-PAGE and immunoblotted with anti-pSer^473Akt, anti-pThr^308Akt or anti-Akt antibody.
(In general: A western blot detects proteins with antibodies after separation by electrophoresis.)

The subject of another data set is mTOR Complex 2. Nature of the data set: VEGF-induced mTOR complex formation, anti-Rictor immunoprecipitation and immunoblot. The class given is cell-based. The note with it: human EC, VEGF 100 nM 5 minutes, 1 hour pretreatment with 100 nM compound. As for the experimental part:
as §1

The subject of the next data set is Akt. Nature of the data set: VEGF-induced Akt activation (phosphorylation) immunoblot in human pulmonary microvascular endothelial cells. Format: cell-based. The settings on record: for VEGF-induced phosphorylation (activation) of Akt at serine 473 and threonine 308: human EC, VEGF 100 nM 5 minutes, 1 hour pre-treatment with 100 nM compound.
For data set [2] the following is noted: white crystalline powder, typically the bromide salt, as commercially provided; cited from earlier work.
Data set [3] has as its system human pulmonary microvascular endothelial cells (HPMVEC). Nature of the data set: Human pulmonary microvascular EC proliferation assay (VEGF-induced). The class given is cell-based. As for the experimental part: Human pulmonary microvascular EC proliferation assay—For measuring cell growth, HPMVEC [5×10^3 cells/well] pretreated with various agents were incubated with 0.2 ml of serum-free media containing 100 nM VEGF for 24 h at 37° C. in 5% CO2195% air in 96-well culture plates. The in vitro cell proliferation assay was analyzed by measuring increases in cell number using the CellTiter96™ MTS assay (Promega, San Luis Obispo, Calif.) and read at 492 nm. Each assay was set up in triplicate, repeated at least five times and analyzed statistically by Student's t test (with statistical significance set at P<0.05).
(§2) Experiments were performed in triplicate. Error bars=standard deviation.
as §2

The test system is the same in data set [4]. Nature of the data set: Human pulmonary microvascular EC migration assay (VEGF-induced, transwell). Format: cell-based. The settings on record: VEGF 100 nM. On the procedure:
Human pulmonary microvascular EC migration assay—Twenty-four transwell units with […] pore size were used for monitoring in vitro cell migration. HPMVEC (˜1×10^4 cells/well) were plated with various treatments to the upper chamber and VEGF (100 nM) was added to the lower chamber. Cells were allowed to migrate for 18 hours. Cells from the upper and lower chamber were quantitated using the CellTiter96™ MTS assay (Promega, San Luis Obispo, Calif.) and read at 492 nm. Percent migration was defined as the # of cells in the lower chamber divided by the number of cells in both the upper and lower chamber. Each assay was set up in triplicate, repeated at least five times and analyzed statistically by Student's t test (with statistical significance set at P<0.05).
Synergistic effects of MNTX with Temsirolimus on inhibition of VEGF—induced human EC proliferation and migration. Inhibition curves of human EC assayed for VEGF (100 nM)-induced proliferation and migration (24 hours) in the presence or absence of 0.1, 1.0, 10, 100 or 500 nM MNTX, Temsirolimus or 10 nM MNTX+Temsirolimus. MNTX inhibited EC VEGF-induced proliferation with an IC50 of ˜100 nM. Adding 10 nM MNTX to EC shifted the IC50 of Temsirolimus inhibition of VEGF-induced proliferation from ˜10 nM to ˜1 nM. Experiments were performed in triplicate. Error bars=standard deviation. […]

Values joined by “and” are separate entries in the source; they are usually repeats but may differ in a detail not shown here. Equal values may be shown once. Read-outs that look alike come from different tables or passages of the source.

Procedure for Akt: To assess the effects of methylnaltrexone (MNTX) on the VEGF-induced activation of the serine/threonine kinase Akt, a well-characterized endothelial cell line, human pulmonary microvascular endothelial cells (HPMVEC), was used. HPMVEC were serum starved for one hour and either untreated (control) or treated with VEGF (100 nM, 5 minutes) with or without pre-treatment (1 hour) with 100 nM MNTX, 100 ng/ml bevacizumab, 100 μM 5-FU, 100 nM MNTX+100 ng/ml bevacizumab or 100 nM MNTX+100 μM 5-FU. Cell lysates were obtained, run on SDS-PAGE and immunoblotted with anti-pSer^473Akt, anti-pThr^308Akt, anti-Akt or anti-actin antibody.
Cell Culture and Reagents—Human pulmonary microvascular EC were obtained from Cambrex (Walkersville, Md.) and cultured as previously described (Singleton et al. (2006), Microvasc. Res. 72(1-2):3-11; Singleton et al. (2007), Am. J. Respir. Cell Mol. Biol. 37(2):222-231) in EBM-2 complete medium (Cambrex) at 37° C. in a humidified atmosphere of 5% CO2, 95% air, with passages 6-10 used for experimentation. Unless otherwise specified, reagents were obtained from Sigma (St. Louis, Mo.). Vascular endothelial growth factor (VEGF) was purchased from R&D Systems (Minneapolis, Minn.). Methylnaltrexone bromide (MNTX) was purchased from Mallinckrodt Specialty Chemicals (Phillipsburg, N.J.). Bevacizumab was purchased from Genentech (South San Francisco, Calif.). 5-fluorouracil (5-FU) was purchased from Abraxis Pharmaceutical Products (Schaumburg, Ill.). Naltrexone and rapamycin were purchased from Sigma (St. Louis, Mo.). Reagents for SDS-PAGE electrophoresis were purchased from Bio-Rad (Richmond, Calif.) and Immobilon-P transfer membrane was purchased from Millipore (Millipore Corp., Bedford, Mass.). Rabbit anti-pSer^473Akt, rabbit anti-pThr^308Akt and rabbit anti-Akt antibodies were purchased from Cell Signaling Technologies (Danvers, Mass.). Mouse anti-β-actin antibody was purchased from Sigma (St. Louis, Mo.). Secondary horseradish peroxidase (HRP)-labeled antibodies were purchased from Amersham Biosciences (Piscataway, N.J.). […]

In the case of `C[N@+]1(CC2CC2)CC[C@]23c4c5ccc(O)c4O[C@H]2C(=O)CC[C@@]3(O)[C@H]1C5` [methylnaltrexone, N-methylnaltrexone], the “VEGF-induced formation of mTOR Complex I” value in data set [1] is given as “inhibits”. The “VEGF-induced formation of mTOR Complex II” value in the data set on mTOR Complex 2 is listed as “inhibits”. In addition, in the data set with Akt (1.0, 10, 100, 1000 nM MNTX), the “inhibition of VEGF-induced pSer473Akt and pThr308Akt immunoreactivity, dose relation” value is “dose-dependent”. Moreover, in the data set with Akt, the “VEGF-induced phosphorylation (activation) of Akt at serine 473 and threonine 308” value is on record as “abrogated”. Further, the solubility in water result in data set [2] is listed as “freely soluble in water”. Further, the IC50 in data set [3] (Homo sapiens, Endothelial cell, 24 h, read-out: IC50 of inhibition of VEGF-induced EC proliferation) is about 100 nM.

Take `CO[C@H]1C[C@@H]2CC[C@@H](C)[C@@](O)(O2)C(=O)C(=O)N2CCCC[C@H]2C(=O)O[C@H]([C@H](C)C[C@@H]2CC[C@@H](OC(=O)C(C)(CO)CO)[C@H](OC)C2)CC(=O)[C@H](C)/C=C(\C)[C@@H](O)[C@@H](OC)C(=O)[C@H](C)C[C@H](C)/C=C/C=C/C=C/1C` [temsirolimus]: the “VEGF-induced formation of mTOR Complex I” value in data set [1] is listed as “mTOR complex II only”. Besides, the “VEGF-induced formation of mTOR Complex II” value in the data set with mTOR Complex 2 is reported as “inhibits”. Moreover, in the data set on Akt, the “VEGF-induced phosphorylation (activation) of Akt at serine 473 and threonine 308” value was “did not inhibit”. Further, the IC50 in data set [3] (VEGF 100 nM, 24 hours, compound alone, read-out: IC50 of inhibition of VEGF-induced EC proliferation) is ~10 nM and 10 nM; in data set [3] (VEGF 100 nM, 24 hours, plus 10 nM MNTX, read-out: IC50 of inhibition of VEGF-induced EC proliferation with 10 nM MNTX added) it was about 1 nM; in data set [3] (VEGF 100 nM, 24 hours, presence of 3,4-Dephostatin, read-out: IC50 of inhibition of VEGF-induced EC proliferation in the presence of 3,4-Dephostatin), 15 nM.

Turning to `CN(N=O)c1ccc(O)c(O)c1` [3,4-dephostatin], in data set [4] (24 hours, with Temsirolimus with or without 10 nM MNTX), the “effect of PTP inhibitor on VEGF-induced EC migration” value was “inhibited”. The “effect of PTP inhibitor on VEGF-induced EC proliferation” value in data set [3] (VEGF 100 nM, 24 hours, with Temsirolimus with or without 10 nM MNTX) is listed as “inhibited”.

For rapamycin, the “inhibition of VEGF-induced endothelial cell migration” value in data set [4] (0.01, 0.1, 1.0 or 10 nM rapamycin) is on record as “dose-dependent inhibition”. In addition, the “inhibition of VEGF-induced endothelial cell proliferation” value in data set [3] (VEGF 100 nM, 0.01, 0.1, 1.0 or 10 nM rapamycin) was “dose-dependent inhibition”.

The values above are taken from US10383869B2, “Treatment with opioid antagonists and mTOR inhibitors” (THE UNIVERSITY OF CHICAGO, priority 2008, dated 2019).
